Values joined by “and” are separate entries in the source; they are usually repeats but may differ in a detail not shown here. Equal values may be shown once. Read-outs that look alike come from different tables or passages of the source.
Columns and labels:
C. difficile ATCC 43255 = test: Determination of minimal-inhibitory concentrations (microdilution), C. difficile ATCC 43255; assay type: cell-based, Clostridioides difficile; conditions: for MIC: Clostridioides difficile
S. aureus = test: MIC against S. aureus strains; assay type: cell-based; conditions: S. aureus ATCC 29213, 24 h
C. difficile strains = test: MIC (microdilution) against panel of 101 C. difficile strains; assay type: cell-based, Clostridioides difficile; conditions: Clostridioides difficile
[1] = C. difficile ATCC 43255, 48-h incubation

Oc1ccc(-c2nc(-c3ccc(Oc4ccc(C(F)(F)F)cc4)cc3)no2)cc1O [Compound 12]
>128 µg/mL: MIC (μg/mL) 24 h (C. difficile ATCC 43255; C. difficile ATCC 43255, 24 h)
2 µg/mL: MIC (μg/mL) 24 h (S. aureus)
128 µg/mL and >128 µg/mL: MIC (μg/mL) 48 h (C. difficile ATCC 43255; [1])

COc1cc(-c2nc(-c3ccc(Oc4ccc(C(F)(F)F)cc4)cc3)no2)ccc1O [Compound 13]
16 µg/mL: MIC (μg/mL) 48 h (C. difficile ATCC 43255; [1]) | MIC (μg/mL) 24 h (C. difficile ATCC 43255; C. difficile ATCC 43255, 24 h)
>128 µg/mL: MIC (μg/mL) 24 h (S. aureus)

O=c1ccc(-c2nc(-c3ccc(Oc4ccc(C(F)(F)F)cc4)cc3)no2)c[nH]1 [Compound 14]
>128 µg/mL: MIC (μg/mL) 48 h (C. difficile ATCC 43255; [1]) | MIC (μg/mL) 24 h (C. difficile ATCC 43255; C. difficile ATCC 43255, 24 h) | MIC (μg/mL) 24 h (S. aureus)

Nc1cc(-c2nc(-c3ccc(Oc4ccc(C(F)(F)F)cc4)cc3)no2)cnc1O [Compound 15]
>128 µg/mL: MIC (μg/mL) 48 h (C. difficile ATCC 43255; [1]) | MIC (μg/mL) 24 h (C. difficile ATCC 43255; C. difficile ATCC 43255, 24 h) | MIC (μg/mL) 24 h (S. aureus)

FC(F)(F)c1ccc(Oc2ccc(-c3noc(-c4ccc(Br)cc4)n3)cc2)cc1 [Compound 18]
>128 µg/mL: MIC (μg/mL) 48 h (C. difficile ATCC 43255; [1]) | MIC (μg/mL) 24 h (C. difficile ATCC 43255; C. difficile ATCC 43255, 24 h) | MIC (μg/mL) 24 h (S. aureus)

O=[N+]([O-])c1ccc(-c2nc(-c3ccc(Oc4ccc(C(F)(F)F)cc4)cc3)no2)cc1 [Compound 19]
≥128 µg/mL: MIC (μg/mL) 24 h (S. aureus)
>128 µg/mL: MIC (μg/mL) 48 h (C. difficile ATCC 43255; [1]) | MIC (μg/mL) 24 h (C. difficile ATCC 43255; C. difficile ATCC 43255, 24 h)

Nc1ccc(-c2nc(-c3ccc(Oc4ccc(C(F)(F)F)cc4)cc3)no2)cc1F [Compound 20]
>128 µg/mL: MIC (μg/mL) 48 h (C. difficile ATCC 43255; [1]) | MIC (μg/mL) 24 h (C. difficile ATCC 43255; C. difficile ATCC 43255, 24 h)
2 µg/mL: MIC (μg/mL) 24 h (S. aureus)

COc1ccc(-c2nc(-c3ccc(Oc4ccc(C(F)(F)F)cc4)cc3)no2)cc1[N+](=O)[O-] [Compound 22]
>128 µg/mL: MIC (μg/mL) 48 h (C. difficile ATCC 43255; [1]) | MIC (μg/mL) 24 h (C. difficile ATCC 43255; C. difficile ATCC 43255, 24 h) | MIC (μg/mL) 24 h (S. aureus)

Nc1cc(-c2nc(-c3ccc(Oc4ccc(C(F)(F)F)cc4)cc3)no2)ccn1 [Compound 24]
>128 µg/mL: MIC (μg/mL) 48 h (C. difficile ATCC 43255; [1]) | MIC (μg/mL) 24 h (C. difficile ATCC 43255; C. difficile ATCC 43255, 24 h) | MIC (μg/mL) 24 h (S. aureus)

FC(F)(F)c1ccc(Oc2ccc(-c3noc(-c4cc[nH]n4)n3)cc2)cc1 [Compound 25]
>128 µg/mL: MIC (μg/mL) 48 h (C. difficile ATCC 43255; [1]) | MIC (μg/mL) 24 h (C. difficile ATCC 43255; C. difficile ATCC 43255, 24 h) | MIC (μg/mL) 24 h (S. aureus)

c1cc(-c2noc(-c3ccc4c(c3)CCN4)n2)ccc1OC1CCCC1 [Compound 54, 3-(4-(Cyclopentyloxy)phenyl)-5-(indolin-5-yl)-1,2,4-oxadiazole]
2 µg/mL: MIC (C. difficile ATCC 43255; ATCC43255, strain ATCC43255, read-out: MIC) | MIC (C. difficile strains; ATCC43598, strain ATCC43598) | MIC (C. difficile strains; BAA1803, strain BAA-1803) | MIC (C. difficile strains; BAA1804, strain BAA-1804) | MIC (C. difficile strains; BAA1812, strain BAA-1812) | MIC (C. difficile strains; strain HM-745) | MIC (C. difficile strains; strain HM-746) | MIC (C. difficile strains; strain NR49294) | MIC (C. difficile strains; strain NR-32903) | MIC (C. difficile strains; strain NR-49280) | MIC (C. difficile strains; strain NR-49282) | MIC (C. difficile strains; strain NR-49283) | MIC (C. difficile strains; strain NR-49286) | MIC (C. difficile strains; strain NR-49293) | MIC (C. difficile strains; strain NR-49307) | MIC (C. difficile strains; strain NR-49308) | MIC (C. difficile strains; strain NR-49315) | MIC (C. difficile strains; strain NR-49317) | MIC (C. difficile strains; strain RMA23691) | MIC (C. difficile strains; strain RMA24531) | MIC (C. difficile strains; strain RMA24923)
4 µg/mL: MIC (C. difficile ATCC 43255; ATCC43255, 24 h, C. difficile ATCC 43255, 24 h, read-out: MIC (μg/mL) 24 h) | MIC (C. difficile strains; BAA1801, strain BAA-1801) | MIC (C. difficile strains; BAA1814, strain BAA-1814) | MIC (C. difficile strains; BAA1870, strain BAA-1870) | MIC (C. difficile strains; strain HM-88) | MIC (C. difficile strains; strain NR49302) | MIC (C. difficile strains; strain NR49310) | MIC (C. difficile strains; strain NR-13429) | MIC (C. difficile strains; strain NR-13431) | MIC (C. difficile strains; strain NR-13433) | MIC (C. difficile strains; strain NR-13434) | MIC (C. difficile strains; strain NR-13435) | MIC (C. difficile strains; strain NR-13553) | MIC (C. difficile strains; strain NR-32882) | MIC (C. difficile strains; strain NR-32883) | MIC (C. difficile strains; strain NR-32884) | MIC (C. difficile strains; strain NR-32887) | MIC (C. difficile strains; strain NR-32889) | MIC (C. difficile strains; strain NR-32890) | MIC (C. difficile strains; strain NR-32891) | MIC (C. difficile strains; strain NR-32892) | MIC (C. difficile strains; strain NR-32896) | MIC (C. difficile strains; strain NR-32897) | MIC (C. difficile strains; strain NR-32900) | MIC (C. difficile strains; strain NR-32904) | MIC (C. difficile strains; strain NR-49277) | MIC (C. difficile strains; strain NR-49278) | MIC (C. difficile strains; strain NR-49279) | MIC (C. difficile strains; strain NR-49281) | MIC (C. difficile strains; strain NR-49284) | MIC (C. difficile strains; strain NR-49285) | MIC (C. difficile strains; strain NR-49287) | MIC (C. difficile strains; strain NR-49288) | MIC (C. difficile strains; strain NR-49289) | MIC (C. difficile strains; strain NR-49290) | MIC (C. difficile strains; strain NR-49291) | MIC (C. difficile strains; strain NR-49295) | MIC (C. difficile strains; strain NR-49297) | MIC (C. difficile strains; strain NR-49303) | MIC (C. difficile strains; strain NR-49306) | MIC (C. difficile strains; strain NR-49311) | MIC (C. difficile strains; strain NR-49312) | MIC (C. difficile strains; strain NR-49313) | MIC (C. difficile strains; strain NR-49314) | MIC (C. difficile strains; strain NR-49316) | MIC (C. difficile strains; strain NR-49319) | MIC (C. difficile strains; strain NR-49320) | MIC (C. difficile strains; strain NR-49321) | MIC (C. difficile strains; strain NR-49323) | MIC (C. difficile strains; strain NR-49325) | MIC (C. difficile strains; strain RMA27173) | MIC50 (C. difficile strains; C. difficile strains of Table 4, read-out: MIC50)
8 µg/mL: MIC (C. difficile ATCC 43255; ATCC43255, 48 h, C. difficile ATCC 43255, 48-h incubation, read-out: MIC (μg/mL) 48 h) | MIC (C. difficile strains; strain HM-89) | MIC (C. difficile strains; strain NR49292) | MIC (C. difficile strains; strain NR49305) | MIC (C. difficile strains; strain NR49318) | MIC (C. difficile strains; strain NR-13427) | MIC (C. difficile strains; strain NR-13428) | MIC (C. difficile strains; strain NR-13430) | MIC (C. difficile strains; strain NR-13436) | MIC (C. difficile strains; strain NR-13437) | MIC (C. difficile strains; strain NR-13438) | MIC (C. difficile strains; strain NR-32885) | MIC (C. difficile strains; strain NR-32886) | MIC (C. difficile strains; strain NR-32888) | MIC (C. difficile strains; strain NR-32895) | MIC (C. difficile strains; strain NR-49296) | MIC (C. difficile strains; strain NR-49298) | MIC (C. difficile strains; strain NR-49299) | MIC (C. difficile strains; strain NR-49300) | MIC (C. difficile strains; strain NR-49301) | MIC (C. difficile strains; strain NR-49304) | MIC (C. difficile strains; strain NR-49309) | MIC (C. difficile strains; strain NR-49324) | MIC (C. difficile strains; strain NR-49326) | MIC (C. difficile strains; strain NR-49327) | MIC (C. difficile strains; strain NR-49328) | MIC (C. difficile strains; strain NR-49329) | MIC (C. difficile strains; strain RMA23828) | MIC (C. difficile strains; strain RMA26675) | MIC (C. difficile strains; strain RMA27081) | MIC90 (C. difficile strains; C. difficile strains of Table 4, read-out: MIC90)
1 µg/mL: MIC (C. difficile strains; strain HM-747)
